We go through 17 compounds from US12410220B2, “Modulation of mammalian cell lineage by synthetic immodulins” (priority 2021, dated 2025).

For assay [1], the system named is rat scald-endotoxemia model. Kind of assay: Experiment 5B rat scald-endotoxemia model. It is filed as in vivo, Sprague Dawley rats. Here is the method: Experiment 5B. This study explores the effect of immX extensions on sV-nephrilin (SEQ ID NO:31) vs V-nephrilin, as well as in a longer peptide also containing the immX extension (Traumatin-3N1A: SEQ ID NO:35) on in vivo efficacy in a rat scald-endotoxemia model. Animals were treated with peptides using a widely used protocol previously described (see, for example, U.S. Pat. No. 10,369,191). Adult Sprague Dawley rats of both sexes (250-300 gm, Charles River Laboratories, Wilmington, MA, USA) were injected with peptide plus equimolar ferric iron once daily by subcutaneous bolus injection, days 1-7; Treatment group sizes were (n=6): group S=sham-treated; group B=burn+vehicle; group V=burn+1 mg/kg V-nephrilin (V); group sV=burn+1 mg/kg sV-nephrilin (immX3N1sV); group T=burn+1 mg/kg Traumatin-3N1A. The first dose was administered after completion of the scald procedure. Injection volume was 400 uL. Control animals received the same volume of vehicle. On Day 8, animals received a single intraperitoneal injection of 2.5 mg/kg lipopolysaccharide (LPS; Sigma Cat #L-2880) and animals were then monitored by oximeter (MouseOx, Starr Life Sciences) for 4 hours, when respiratory distress (breath distension*breaths/min) was assessed relative to baseline. This was followed by sacrifice and tissue collection as in the published protocol, except that bronchoalveolar lavage (BAL) was collected and cells were recovered from BAL by centrifugation. These cells were stained with fluorescently-labeled antibodies for flow cytometry in order to ascertain granulocyte counts, as shown below. Results of the peptide comparison are presented in the table below. *p<0.05 vs “B” control. #p<0.05 vs “V” group.

The test system of assay [2] is HFF-1 human fibroblast cell line. Kind of assay: Collagen-1 ELISA in HFF-1 dermal fibroblasts. The assay is classed as cell-based. The following applies: peptide 2 uM, 72 hour incubation. Here is the method: Immodulin peptides have potential untility in the field of cosmetics. HFF-1 human fibroblast cell line was obtained from the American Type Culture Collection (ATCC). Cells were grown in a T-75 flask in DMEM Medium containing 10% fetal bovine serum and penicillin-streptomycin at 37° C. in a humidified, 5% CO2 incubator. Cells (100 µl, 2,000 cells/well) were plated in a 96-well plate and incubated overnight at 37° C. in a humidified, 5% CO2 incubator. Next day, 10 µl/well of compounds were added (quadruplicate wells). After 72 hour incubation with the compound, supernatants were collected for Collagen-1 ELISA assay and cell viability was measured in a luminometer after the addition of 100 IL/well CellTiterGlo reagent (Promega Inc, Madison, WI) as recommended by the manufacturer. Collagen stimulating activity of immodulin peptides in HFF-1 dermal fibroblasts: Peptides were added to cells at 2 uM. COL1 immunoreactivity was measured in the supernatants of cultured cells by ELISA using a rabbit monoclonal anti-COL1 primary antibody (Abcam, Cambridge, MA). Control (buffer) value of immunoreactivity was set to 100.

A short description of assay [3]: Ferric iron-binding assay of biotinylated immodulin peptides. The following applies: N-terminally biotinylated peptide, 400 ng per well, 60 min room temperature; immX3AVD = 100. From the text:
N-terminally biotinylated versions of the peptides listed below were used in ferric iron-binding assays involving either an Alexa488-labeled streptavidin protocol (Binding Assay 1) or FITC-NTA assay (Binding Assay 2). Fluorescence was standardized to binding with immX3AVD control peptide (100) and the average of multiple experiments using both protocols is shown. P values are shown relative to the control immX3AVD peptide (**<0.05). D-amino acid residues are underlined in the sequences and the extension tripeptide of immX peptides is shown in bold font. Binding Assay 1 was done as follows: NTA coated 96-well plates (G-Biosciences, St. Louis, MO) were charged with ferric chloride and contacted with equimolar biotinylated peptide: streptavidin-A488 complex (400 ng peptide per well) for 60 min at room temperature, washed with phosphate-buffered saline (PBS) and read at 525 nm in a fluorescence counter. Binding Assay 2 was done as follows: Streptavidin coated 96-well plates (G-Biosciences, St. Louis, MO) were contacted with 400 ng peptide per well in PBS buffer for 60 minutes at room temperature, washed in PBS, then contacted with FITC-NTA (TRC, Toronto, Canada) complexed with equimolar ferric chloride (10× molar equivalent per well) for 60 min at room temperature, washed with PBS and read at 525 nm in a fluorescence counter.

Assay [4] in a line: Experiment 4D binding to FITC-labelled hyaluronic acid. The following applies: biotinylated peptide 1 ug/well; 1 ug FITC-labelled hyaluronic acid, 90 minutes. Here is the method:
(§1) Streptavidin-coated 96-well plates (G-Biosciences, St. Louis, MO) were pre-treated with biotinylated peptides [see Example 1 for key] at 1 ug/well, at room temperature for 60 minutes. The plate was washed with PBS buffer and then 1 ug FITC-labelled heparin or hyaluronic acid in 100 uL PBS buffer was added per well (all tests in quadruplicate). Incubation proceeded for 90 minutes at room temperature, followed by two PBS washes. The plate was read in a standard laboratory fluorometer (488/525 nm exitation/[…]) and the counts normalized for immX3 peptide binding=100. Values statistically above background are shown in bold font. **p<0.05 versus immX3AVD.

Assay [5] can be described thus: Experiment 4D binding to FITC-labelled heparin. The conditions noted are these: biotinylated peptide 1 ug/well; 1 ug FITC-labelled heparin, 90 minutes. As for the experimental part: as §1
[6] abbreviates: Day 1, burn + 1 mg/kg peptide plus equimolar ferric iron, subcutaneous once daily.
Setting [7] is: Day 8, after LPS, burn + 1 mg/kg peptide days 1-7.

Marks after values point to notes of the source that are not given here. Square brackets hold non-standard residues; d marks the D form. Ends that are not written are not given here. Peptide text beside a SMILES is read from it. * marks the point of attachment. Pentanoyl(2-Pr) = CCCC(CCC)C(=O)*; Decanoyl = CCCCCCCCCC(=O)*

For “Traumatin-3N1A: a longer peptide also containing the immX extension (SEQ ID NO:35) (RGVTEDYLRLETLVQKVVSPYLKGFYKKKQCRPSKGRKRGFCWAVD)”, in assay [1] (setting [6]), the “Plasma IL-6 (pg/ml)” value is listed as 22.5 ± 11*^ pg/ml and the “Plasma albumin mg/ml (24 hr IR)” value is listed as 7.6 ± 0.9* mg/ml. For the same compound, the “Change in body weight (Pct vs Day 1)” value in assay [1] (Day 5, burn + 1 mg/kg peptide plus equimolar ferric iron, subcutaneous once daily) was −5.3 ± 3.5* Pct. Also, in assay [1] (Day 8, 4 hours after LPS, burn + 1 mg/kg peptide days 1-7), the “Respiratory distress (Gp. “S” = 100)” value is 197 ± 39*#. In addition, the “Wet/dry lung weight (corrected for body weight)” value in assay [1] (Day 8, after LPS 2.5 mg/kg ip, burn + 1 mg/kg peptide days 1-7) is given as 6.74 ± 0.61*. For the same compound, in assay [1] (setting [7]), the “BAL fluid IL1-beta (pg/ml)” value was 45.7 ± 24*# pg/ml, the “Plasma OHDG (ng/ml)” value is on record as 1.24 ± 0.4* ng/ml and the “Plasma creatinine (mg/dL)” value is 0.64 ± 0.2* mg/dL. In the case of “(rhn)-KKGFYKKKQCRPSKGRKRGFCW (rhein-KKGFYKKKQCRPSKGRKRGFCW; cysteine pairing not given here) [imm3rhn, imm3 N-terminally conjugated with rhein]”, the “COL1 immunoreactivity in supernatants, control (buffer) set to 100” value (“COL1 immunoreactivity in supernatants” for short) in assay [2] is 68**.

Consider “KKGFYKKKQCRPSKGRKRGFCW[dA]VD (cysteine pairing not given here) [immX3dAVD]”, for which the “Ferric iron binding, fluorescence standardized to immX3AVD control peptide (100), Avg ± SD” value (“Ferric iron binding … Avg ± SD” below) in assay [3] stood at 108.1 ± 1.5. Consider “AFNSYELGSKKGFYKKKQCRPSKGRKRGFCW [imm3K9.1]”, for which the “COL1 immunoreactivity in supernatants” value in assay [2] was 156**. On to “(cin)-KKGFYKKKQCRPSKGRKRGFCW ({cinnamic acid}-KKGFYKKKQCRPSKGRKRGFCW; cysteine pairing not given here) [imm3cin, imm3 N-terminally conjugated with cinnamic acid]”, for which the “COL1 immunoreactivity in supernatants” value in assay [2] is listed as 106. Consider “SLNPEWNETKGFYKKKQCRPSKGRKRGFCW[dA][dV][dD] (cysteine pairing not given here) [immX3K1dAdVdD]”, for which the “Hyaluronate binding, counts normalized for immX3 peptide binding=100” value (shortened to “Hyaluronate binding, counts normalized”) in assay [4] is 101.9 ± 16.4. In addition, the “Ferric iron binding … Avg ± SD” value in assay [3] is 108.2 ± 6.6. Further, the “Heparin binding, counts normalized for immX3 peptide binding=100” value (“Heparin binding, counts normalized” below) in assay [5] is recorded as 56.0 ± 7.3**.

In the case of RKGFYKRKQCKPSRGRKRGICWAVD [immX5AVD], in assay [4], the “Hyaluronate binding, counts normalized” value is on record as 113.9 ± 15.7. Further, in assay [3], the “Ferric iron binding … Avg ± SD” value is recorded as 88.1 ± 14.2. In addition, in assay [5], the “Heparin binding, counts normalized” value stood at 68.7 ± 26.2. For RNGNFHPKQCHPALDGQRGKCWAVD [immX4AVD], the “Hyaluronate binding, counts normalized” value in assay [4] was 61.1 ± 34.1. Also, the “Ferric iron binding … Avg ± SD” value in assay [3] is 1.2 ± 1.3**. Moreover, the “Heparin binding, counts normalized” value in assay [5] is reported as 7.3 ± 17.1. As for “(bex)-KKGFYKKKQCRPSKGRKRGFCW (not fully specified (N-terminus); printed as (bex)-KKGFYKKKQCRPSKGRKRGFCW; cysteine pairing not given here) [imm3bex]”, the “COL1 immunoreactivity in supernatants” value in assay [2] was determined as 102. Regarding “KKGFYKKKQCRPSKGRKRGFCW(dS)(dV)(dD) (KKGFYKKKQCRPSKGRKRGFCW[dS][dV][dD]; cysteine pairing not given here) [immX3dSdVdD]”, in assay [3], the “Ferric iron binding … Avg ± SD” value was 133.6±. With `CCCC(CCC)C(=O)N[C@@H](CCCCN)C(=O)N[C@@H](CCCCN)C(=O)NCC(=O)N[C@@H](Cc1ccccc1)C(=O)N[C@@H](Cc1ccc(O)cc1)C(=O)N[C@@H](CCCCN)C(=O)N[C@@H](CCCCN)C(=O)N[C@@H](CCCCN)C(=O)N[C@@H](CCC(N)=O)C(=O)N[C@@H](CS)C(=O)N[C@@H](CCCNC(=N)N)C(=O)N1CCC[C@H]1C(=O)N[C@@H](CO)C(=O)N[C@@H](CCCCN)C(=O)NCC(=O)N[C@@H](CCCNC(=N)N)C(=O)N[C@@H](CCCCN)C(=O)N[C@@H](CCCNC(=N)N)C(=O)NCC(=O)N[C@@H](Cc1ccccc1)C(=O)N[C@@H](CS)C(=O)N[C@@H](Cc1c[nH]c2ccccc12)C(=O)O` [imm3vlp] ({Pentanoyl(2-Pr)}-KKGFYKKKQCRPSKGRKRGFCW-OH; C-terminus assumed), in assay [2], the “COL1 immunoreactivity in supernatants” value is on record as 157**. Take “(isf)-KKGFYKKKQCRPSKGRKRGFCW ({isoferulic acid}-KKGFYKKKQCRPSKGRKRGFCW; cysteine pairing not given here) [imm3isf, imm3 N-terminally conjugated with isoferulic acid]”: the “COL1 immunoreactivity in supernatants” value in assay [2] was 131*. Same read-out and setting: the same measure for `CCCCCCCCCC(=O)N[C@@H](CCCCN)C(=O)N[C@@H](CCCCN)C(=O)NCC(=O)N[C@@H](Cc1ccccc1)C(=O)N[C@@H](Cc1ccc(O)cc1)C(=O)N[C@@H](CCCCN)C(=O)N[C@@H](CCCCN)C(=O)N[C@@H](CCCCN)C(=O)N[C@@H](CCC(N)=O)C(=O)N[C@@H](CS)C(=O)N[C@@H](CCCNC(=N)N)C(=O)N1CCC[C@H]1C(=O)N[C@@H](CO)C(=O)N[C@@H](CCCCN)C(=O)NCC(=O)N[C@@H](CCCNC(=N)N)C(=O)N[C@@H](CCCCN)C(=O)N[C@@H](CCCNC(=N)N)C(=O)NCC(=O)N[C@@H](Cc1ccccc1)C(=O)N[C@@H](CS)C(=O)N[C@@H](Cc1c[nH]c2ccccc12)C(=O)O` [imm3dec] (Decanoyl-KKGFYKKKQCRPSKGRKRGFCW-OH; C-terminus assumed): 114. For the compound `CC(C)[C@H](NC(=O)[C@H](Cc1ccccc1)NC(=O)[C@H](Cc1c[nH]c2ccccc12)NC(=O)[C@H](CS)NC(=O)[C@H](Cc1ccccc1)NC(=O)CNC(=O)[C@H](CCCNC(=N)N)NC(=O)[C@H](CCCCN)NC(=O)[C@H](CCCNC(=N)N)NC(=O)CNC(=O)[C@H](CCCCN)NC(=O)[C@H](CO)NC(=O)[C@@H]1CCCN1C(=O)[C@H](CCCNC(=N)N)NC(=O)[C@H](CS)NC(=O)[C@H](CCC(N)=O)NC(=O)[C@H](CCCCN)NC(=O)[C@H](CCCCN)NC(=O)[C@H](CCCCN)NC(=O)[C@H](Cc1ccc(O)cc1)NC(=O)[C@H](Cc1ccccc1)NC(=O)CNC(=O)[C@H](CCCCN)NC(=O)[C@@H](N)CCCCN)C(=O)N[C@@H](CO)C(=O)O` [immX3FVS] (H-KKGFYKKKQCRPSKGRKRGFCWFVS-OH; N-terminus and C-terminus assumed), the “Ferric iron binding … Avg ± SD” value in assay [3] was 78.3 ± 6.5**. Take “FNSYELGSLKKGFYKKKQCRPSKGRKRGFCW [imm3K8]”: the “COL1 immunoreactivity in supernatants” value in assay [2] stood at 98. AFNSYELGSKGFYKKKQCRPSKGRKRGFCW [imm3K9]: in assay [2], the “COL1 immunoreactivity in supernatants” value is reported as 155**. Regarding “AFNSYELGSKGFYKKKQCRPSKGRKRGFCWAVDKY [imm3K9c]”, in assay [2], the “COL1 immunoreactivity in supernatants” value was 158**.
